In publication PMC2848536 (Journal of medicinal chemistry, 2010):
pIC50: −log10 of the molar value. Entries after “also recorded” stand apart in the source; their conditions may differ.

Tests used:
[1] = test system: actin cytoskeleton of HeLa cells; assay: HeLa cell microfilament; assay type: cell-based, human; conditions: 24 h, result in words
HCT-116 cells = conditions: read-out: IC50 against HCT-116 cells, cytotoxicity; cited from earlier work
microfilaments = conditions: result in words; cited from earlier work

Row | Compound | microfilament disruption at 80 nM [1] | pIC50 (HCT-116 cells) | MF disruption at 5 µM (microfilaments)
1 | jasplakinolide F [Compound 4] | exhibited microfilament disruption |  | 
2 | C=C1C[C@H](C)C(=O)N[C@@H](C)C(=O)N(C)[C@H](Cc2c(Br)[nH]c3ccccc23)C(=O)N[C@@H](c2ccc(O)cc2)CC(=O)O[C@@H](C)C[C@@H](C)C1=O [Compound 11, jasplakinolide B] | without microfilament disruption; also recorded: without MF disruption; also recorded: did not exhibit microfilament-disrupting activity |  | 
3 | C/C1=C\[C@H](C)C[C@H](C)OC(=O)C[C@H](c2ccc(O)cc2)NC(=O)[C@@H](Cc2c(Br)[nH]c3ccccc23)N(C)C(=O)[C@H](C)NC(=O)[C@@H](C)C1 [Compound 1, jasplakinolide] | exhibited microfilament disruption |  | 
4 | 18-epi-latrunculol |  | 5.68 | without MF disruption
